# Laboratory results reported in patent US20100267928A1, “ACTIVATABLE DIAGNOSTIC AND THERAPEUTIC COMPOUND” (priority 2007, published 2010).
# Primed or numbered codes have the meaning given here. Where no end group is shown, it is not given here. The star is where a group is joined. DOTA = O=C(O)CN1CCN(CC(=O)O)CCN(CC(=O)*)CCN(CC(=O)O)CC1; FITC′ = fluorescent dye, fluorescein isothiocyanate
# Key:
# [1] = target: T1, MMP-2 (Homo sapiens, UniProt P08253); experiment: Cleavage test with MMP-2, cleavage products examined by HPLC; format: biochemical
# T1 construct: purchased Calbiochem
# T1 sequence (P08253 110-660): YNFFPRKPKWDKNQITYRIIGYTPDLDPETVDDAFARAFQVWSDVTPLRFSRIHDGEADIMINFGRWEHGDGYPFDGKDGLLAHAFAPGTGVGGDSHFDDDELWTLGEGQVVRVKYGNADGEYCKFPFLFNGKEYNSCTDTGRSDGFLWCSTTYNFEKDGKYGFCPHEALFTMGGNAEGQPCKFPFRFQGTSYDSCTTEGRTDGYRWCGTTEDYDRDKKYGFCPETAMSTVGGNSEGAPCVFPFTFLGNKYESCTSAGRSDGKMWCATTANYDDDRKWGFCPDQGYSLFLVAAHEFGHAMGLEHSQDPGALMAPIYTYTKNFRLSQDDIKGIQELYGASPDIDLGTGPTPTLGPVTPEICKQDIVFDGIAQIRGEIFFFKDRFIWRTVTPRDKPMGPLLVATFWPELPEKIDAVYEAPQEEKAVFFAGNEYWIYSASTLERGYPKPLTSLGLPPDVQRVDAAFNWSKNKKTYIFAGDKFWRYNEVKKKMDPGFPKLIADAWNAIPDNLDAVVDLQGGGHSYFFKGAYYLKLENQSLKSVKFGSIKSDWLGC
# Description: The incubation in HEPES buffer with active MMP-2 was made for 2 hours.
# […]. For this 1% APMA stock solution (100 mM in DMSO) was added to the solution containing the MMP-2 proenzyme and the compounds (final APMA concentration: 1 mM, with 1% DMSO).
# In the following also an incubation of 2 hours was performed. In addition the tests were made with the MMP-2 inhibitor I (Calbiochem). All six compounds were, as a control, also incubated into HEPES buffer without MMP-2 for two hours.
# [2] = system: LN18 and U373 glioma cells; experiment: Confocal laser scanning microscopy (CLSM) and FACS, staining of cell nuclei; format: cell-based, human; conditions: 130 μM, APMA-containing medium, MMP-2 inactive/inhibited
# Description: (§1) The FACS analysis was performed on a Becton-Dickinson FACSCalibur. [[…] of the cell suspension (1×10^6 cells+[…] FACS buffer (DPBS buffer with 1% paraformaldehyde)]. Approximately 25.000 to 35.000 cells were measured per sample [fluorescence excitation: argon-ion laser (480 nm), fluorescence detection: 540 to 565 nm band-path filter]. The tests were repeated two times.
# [3] = system: U373 and LN18 glioma cells; experiment: Magnetic resonance relaxometry on glioma cell centrifugates; format: cell-based, human
# Description: Human U373 and LN18 glioma cells were grown in 25 cm^2 culture flasks (70% confluence). Accutase™ (PAA laboratories, Pasching, Austria) was added to strip off the cells from the bottom of the culture flasks.
# In a first try the cells were collected and subsequently distributed on 16 Eppendorf-vials (6×10^6 cells per vial). The cells in the first four vials were used as a control (only RPMI medium with and also without APMA, two cell lines). […] In the following it was washed for three times with PBS and centrifuged with 800 rpm (rounds per minute) for 5 minutes.
# In another test adherent U373 and LN18 glioma cells were incubated with the compounds 2A, 4A and […], and were stripped off in the following and collected in Eppendorf vials for the MRT. The MRT analysis of the Eppendorf vials with the cell centrifugates were performed in a 3 Tesla full body MRT apparatus (Trio, Siemens Magnetom Sonata, circular polarised knee coil).
# The following spin echo sequence was used to obtain sagittal T1-weighted MRT images.
# […] TE (echo time): 7.4 ms, flip angle 90°, averages: 1, concatenations: 2, measurements: 2, number of slices: 19, distance factor: 30%, slice thickness: 3 mm, field of view read: 180 mm, field of view phase: 100%, base resolution: 256, phase resolution: 100%, voxel size: 0.7×0.7×3.0 mm, scan time: 1:48 min.
# By means of multiple spin echo measurements (TR: 20-8000 ms, 50 different TR values) different signal intensities were measured through which the T1 relaxation time could be determined.
# TR: 20-8000 ms (50 different TR values), TE: 6.4 ms, flip angle 90°, averages: 1, measurements; 1, number of slices: 1, slice thickness: 1 mm, field of view read: 120 mm, field of view phase: 87.5, base resolution 128, phase resolution; 100% voxel size: 0.9×0.9×1 mm.
# For the analysis and calculations a Matlab programme (Math Works, Natick, Mass., USA) was used. The T1 values were determined via a two-parameter fit. All signal curves were examined and rated as being mono-exponential. All tests were performed three times.
# [4] = system: LN18 and U373 glioma cells; conditions: 130 μM; APMA-containing medium without inhibitor
# Description: Human malignant glioma cells (U373 and LN18) were seated into 25 cm^2 culture flasks which contained 3 ml RPMI medium. This was left as it is for one day so that enough matrix metalloprotenases (MMP-2) could accumulate.
# In a second test the same compounds were again dissolved in the media of 12 flasks (130 μM), however now with MMP-2 inhibitor I (Calbiochem).
# As a control four small flasks were used wherein both cell lines were incubated in a one day old medium with and also without APMA.
# For the confocal laser scanning microscopy an inverted LSM510 laser scanning microscope (Karl Zeiss, Jena, Deutschland) (Objectives: LD Achroplan 40×0.6, Plan Neofluar 20×0.50, 40×0.75) was used [fluorescence excitation at 488 nm (argon-ion laser) and […] (helium-neon laser)]. Superimposed images of FITC- and alexa-stained cells were produced. All measurements were performed on living, non-fixed cells for three times.
# [5] = system: intra-cerebral LN18 brain tumors; experiment: In vivo magnetic resonance tomography of nude mice with implanted glioma
# Description: Female nude mice CD1(Nu/Nu) were obtained from Charles River (Sulzfeld, Germany) (weight: 25 g; age: 7 weeks). Human LN18 glioma cells were grown and implanted into the brain as described by Friese et al. (2003), MICA/NKG2D-mediated Immunogene Therapy of Experimental Gliomas, Cancer Res. 63(24): 8996-9006. The tests were performed 3 weeks after the implantation.
# 3.6 mg of the compound 4A were dissolved in 1 ml isotonic saline solution and intraperitoneally injected into 2 mice. Further, 3.6 mg of compound 4A were dissolved in 1 ml isotonic saline solution together with 0.5 mg MMP-2 inhibitor I, and in intraperitoneally injected into 2 mice. A mouse was used as control which were injected with 1 ml pure saline solution. Narcosis was performed with ketamine (100 mg/kg) and xylazine (10 mg/kg) intraperitoneally.
# MRT was performed with a 3 Tesla full body apparatus (Trio. Siemens).
# The mice were placed face down in a wrist array coil.
# The MRT protocol consisted of the following sequences:
# Tse 3D sequence: slice thickness 0.3125 mm, field of view read 63 mm, field of view phase 100.0%, base resolution 256, phase resolution 100%, slice resolution 100%, voxel seize 0.2×0.2×0.3 mm, slab group 1, slabs 1, slices per slab 16, TR 300 ms, TE 15 ms, flip angle 70, distance factor 50, scan time 12:02 min.
# T1 weighted transverse images: slice thickness 2 mm, field of view read 31 mm, field of view phase 82.3%, voxel seize 0.2×0.2×2 mm, TR 600 ms, TE 18 ms, flip angle 180, number of slices 12, distance factor 0, scan time 11:35 min.
# [6] = system: LN18 glioma cells; experiment: FACS analysis of fluorescence-stained cells; format: cell-based, human; conditions: depending on the concentration; FIG. 5
# Description: as §1
substance,measurement,setting,value
K-(GdDOTA)-G-PLGLA-GG-PKKKRKVRRRR-K(FITC)-GG-K(GdDOTA) (K(DOTA)GPLGLAGGPKKKRKVRRRRK(FITC′)GGK(DOTA)-NH2; also: DOTA groups complexed with Gd (GdDOTA)) [V4A],cleavage of the compound by MMP-2 (HPLC),"[1]; already active MMP-2 or proform of MMP-2 activated by APMA, 2 hours in HEPES buffer",cleaved
same,cleavage of the compound by MMP-2 in presence of the inhibitor (HPLC),[1]; with MMP-2 inhibitor I,prevented
same,"staining of the cell nuclei, MMP-2 inactive",[2],few stained cell nuclei
same,"shortening of the T1 time in comparison to the native control, inhibitor-containing medium","[3]; 26 and 130 μM, with MMP-2 inhibitor",minor shortening of the T1 time
same,"signal intensity at TR: 400 ms, active MMP-2 versus inactive MMP-2","[3]; LN18 glioma cell centrifugates, 26 and 130 μm, washed and centrifuged three times",considerably higher signal intensity
same,"shortening of the T1 time in comparison to component 2A, inhibitor-free medium",[3]; depending on the concentration,stronger shortening of the T1 time
same,"shortening of the T1 time, inhibitor-free medium",[3]; without MMP-2 inhibitor,more distinct shortening of the T1 time
same,"apoptosis (binding of Alexa annexin to phosphatidyl serine; morphologic alterations), MMP-2 active",[4],apoptotic
same,intensity of the signal in the tumor in comparison to the native image,"[5]; 30 minutes after intraperitoneal administration, FIG. 8",considerably decreases
same,signal intensity in the brain tumors in MR tomography,"[5]; intraperitoneal administration, nude mice with intra-cerebral LN18 brain tumors",distinct increase of the signal intensity
same,"signal intensity in the brain tumors, administered in the presence of an MMP-2 inhibitor","[5]; intraperitoneal, with MMP-2 inhibitor, remained only for a short time",very minor increase of the signal intensity
same,signal intensity in the brain tumors one day after the administration,"[5]; intraperitoneal, one day after administration",attenuated form
same,fluorescence after cleavage by MMP-2 in comparison to the components 2 and 2A,[6],stronger fluorescence
